The text below walks through data of patent US12011460B2, “Expansion of NK and DC cells in vivo mediating immune response” (UNIVERSITE DE MONTREAL, priority 2018, dated 2024).

For one assay, the system named is CD34 + CD45RA- cells. The assay can be described thus: Expansion of CD34+CD45RA- cells compared to DMSO (EC50). The assay is classed as cell-based. To be noted: concentration of compound necessary to expand 50% more of CD34+CD45RA- cells as compared to cells treated with DMSO.
In assay [1] the test system is cord blood derived CD34+ cells. Description: Ex vivo culture of cord blood derived CD34+ cells, graft composition by flow. To be noted: expanded cord blood; UM171 35 nM, SR1 500 nM. The class given is cell-based, human.

The term EC50 denotes the midpoint of the concentration-response curve. On to `CNS(=O)(=O)c1cccc(Nc2ncnc3[nH]c4cc(C(=O)OC)ccc4c23)c1` [Compound 43], for which, in the assay with CD34 + CD45RA- cells, the EC50 is 263 nM. Regarding `COC(=O)c1ccc2c(c1)[nH]c1nc(C(OC)c3ccccc3)nc(NCCCN3CCCCC3)c12` (centres unmarked) [Compound 13], the EC50 in the assay on CD34 + CD45RA- cells came out at 68 nM. For `COC(=O)c1ccc2c(c1)[nH]c1nc(Cc3ccc4ccccc4c3)nc(NCCCN3CCCCC3)c12` [Compound 8], the EC50 with CD34 + CD45RA- cells came to 150 nM. For `CN(CCCN)CCCNc1nc(Cc2ccccc2Br)nc2[nH]c3cc(-c4nnn(C)n4)ccc3c12` [Compound 24], the EC50 in the assay on CD34 + CD45RA- cells came to 51 nM. With `Cn1nnc(-c2ccc3c(c2)[nH]c2ncnc(NCCCCN4CCCCC4)c23)n1` [Compound 29], the EC50 in the assay with CD34 + CD45RA- cells was 36 nM.

For `COC(=O)c1ccc2c(c1)[nH]c1nc(Cc3ccccc3)nc(NCCS(N)(=O)=O)c12` [Compound 50], the EC50 in the assay on CD34 + CD45RA- cells was 67 nM. With `COC(=O)c1ccc2c(c1)[nH]c1nc(Cc3cccs3)nc(NCCCN3CCCCC3)c12` [Compound 3], the EC50 with CD34 + CD45RA- cells was found to be 8 nM. Consider `COC(=O)c1ccc2c(c1)[nH]c1nc(Cc3ccccc3)nc(NCCCN(C)CCCNC(=N)N)c12` [Compound 48], for which the EC50 with CD34 + CD45RA- cells was found to be 61 nM. In the case of `COC(=O)c1ccc2c(c1)[nH]c1nc(Cc3cccnc3)nc(NCCCN3CCCCC3)c12` [Compound 4], the EC50 with CD34 + CD45RA- cells is 14 nM. Still for that read-out and setting: with `COC(=O)c1ccc2c(c1)[nH]c1cc(Cc3cccc(OC)c3)nc(NCCCCN3CCCC3)c12` [Compound 34] the figure was 76 nM; with `COC(=O)c1ccc2c(c1)[nH]c1nc(Cc3ccccc3)nc(NCCCN3C(=O)CCC3=O)c12` [Compound 49], 41 nM. Consider `COC(=O)c1ccc2c(c1)[nH]c1nc(Cc3ccccc3)nc(NCC(O)CO)c12` (centres unmarked) [Compound 44], for which the EC50 in the assay on CD34 + CD45RA- cells is 59 nM. With `COC(=O)c1ccc2c(c1)[nH]c1nc(C(C)c3ccccc3)nc(NCCCN3CCCCC3)c12` (centres unmarked) [Compound 18], the EC50 in the assay on CD34 + CD45RA- cells is 67 nM. The same measure, in the same setting: as for `CN(CCCNC(=O)COCCOCCN)CCCNc1nc(Cc2ccccc2)nc2[nH]c3cc(-c4nnn(C)n4)ccc3c12` [Compound 23], the figure is 249 nM.

For `COC(=O)c1ccc2c(c1)[nH]c1nc(Cc3ccccc3)nc(NNc3ccc(S(C)(=O)=O)cc3)c12` [Compound 60], the EC50 in the assay with CD34 + CD45RA- cells came out at 23 nM. As to `COC(=O)c1ccc2c(c1)[nH]c1nc(Cc3ccccc3)nc(NCCCCCCCCN)c12` [Compound 41], in the assay on CD34 + CD45RA- cells, the EC50 was found to be 39 nM.

For the compound `COC(=O)c1ccc2c(c1)[nH]c1nc(Cc3cccc(C(O)C(F)(F)F)c3)nc(NCCCN3CCCCC3)c12` (centres unmarked) [Compound 6], the EC50 in the assay with CD34 + CD45RA- cells is 16 nM. As for `COC(=O)c1ccc2c(c1)[nH]c1nc(Cc3ccccc3)nc(NCC(O)CN3CCCCC3)c12` (centres unmarked) [Compound 10], the EC50 in the assay on CD34 + CD45RA- cells is 7 nM.

In the case of `COC(=O)c1ccc2c(c1)[nH]c1nc(Cc3ccccc3)nc(NCCN3CCOCC3)c12` [Compound 42], in the assay with CD34 + CD45RA- cells, the EC50 worked out at 12 nM. On to `COC(=O)c1ccc2c(c1)[nH]c1nc(Cc3cccc(CO)c3)nc(NCCCN(C)CCCN)c12` [Compound 19], for which the EC50 in the assay on CD34 + CD45RA- cells is 38 nM. As for `COC(=O)c1ccc2c(c1)[nH]c1nc(Cc3ccccc3)nc(NCCCN(C)CCCNc3ncnc4[nH]c5ccccc5c34)c12` [Compound 21], in the assay on CD34 + CD45RA- cells, the concentration giving a half-maximal response (EC50) stood at 19 nM. The same measure, in the same setting: with `COC(=O)c1ccc2c(c1)[nH]c1nc(Cc3cccc(C(=O)C(F)(F)F)c3)nc(NCCCN3CCCCC3)c12` [Compound 7] the figure was 31 nM.

`COC(=O)c1ccc2c(c1)[nH]c1nc(Cc3ccccc3)nc(NCCN(C)CC(F)F)c12` [Compound 45]: in the assay on CD34 + CD45RA- cells, the EC50 was 336 nM. Consider `CNCCCNc1ncnc2[nH]c3cc(-c4nnn(C)n4)ccc3c12` [Compound 30], for which the EC50 with CD34 + CD45RA- cells was 135 nM. As for `CN(CCC[N+](C)(C)C)c1nc(Cc2ccccc2)nc2[nH]c3cc(-c4nnn(C)n4)ccc3c12` [Compound 26], the EC50 in the assay with CD34 + CD45RA- cells amounted to 484 nM.

With `Cn1nnc(-c2ccc3c(c2)[nH]c2ncnc(NCCCN4CCC(O)CC4)c23)n1` [Compound 28], the EC50 in the assay with CD34 + CD45RA- cells came to 277 nM. With `CN1CCN(c2ccc(CNc3nc(Cc4ccccc4)nc4[nH]c5cc(-c6nnn(C)n6)ccc5c34)cc2)CC1` [Compound 22], the EC50 in the assay with CD34 + CD45RA- cells is 100 nM. For the compound `CNS(=O)(=O)c1ccc(CNc2nc(Cc3ccccc3)nc3[nH]c4cc(C(=O)OC)ccc4c23)cc1` [Compound 51], the half-maximal effective concentration (EC50) in the assay on CD34 + CD45RA- cells was 62 nM. As for `C#CCOC(CNc1nc(Cc2ccccc2)nc2[nH]c3cc(C(=O)OC)ccc3c12)CN1CCCCC1` (centres unmarked) [Compound 9], the EC50 in the assay with CD34 + CD45RA- cells was 24 nM. As to `COC(=O)c1ccc2c(c1)[nH]c1nc(Cc3ccccc3)nc(NCCNC3=NCCC3)c12` [Compound 59], the EC50 in the assay on CD34 + CD45RA- cells was 75 nM. As for `CC(C)n1cnc2c(NCCc3ccc(O)cc3)nc(-c3csc4ccccc34)nc21` [SR1], in assay [1], the “dendritic cells population (CD86+CD34+) share of the graft” value is reported as “less than 5%”. For the compound `COC(=O)c1ccc2c(c1)[nH]c1nc(Cc3ccccc3)nc(NCCCCCN(C)C)c12` [Compound 40], the EC50 in the assay on CD34 + CD45RA- cells worked out at 2 nM. Still for that read-out and setting: with `COC(=O)c1ccc2c(c1)[nH]c1nc(C(O)c3ccccc3)nc(NCCCN3CCCCC3)c12` (centres unmarked) [Compound 14] the figure was 4 nM; with `COC(=O)c1ccc2c(c1)[nH]c1nc(Cc3ccccc3)nc(NCc3cnc(C)cn3)c12` [Compound 56], 48 nM. Take `COC(=O)c1ccc2c(c1)[nH]c1nc(Cc3ccccc3)nc(NCC3CCCN(C(=O)OC)C3)c12` (centres unmarked) [Compound 55]: in the assay with CD34 + CD45RA- cells, the 50% effective concentration (EC50) amounted to 79 nM.

With `COC(=O)c1ccc2c(c1)[nH]c1nc(Cc3ccccc3)nc(NCCNS(C)(=O)=O)c12` [Compound 33], the EC50 in the assay with CD34 + CD45RA- cells amounted to 33 nM. As for `COC(=O)c1ccc2c(c1)[nH]c1nc(Cc3ccccc3)nc(NCCC#N)c12` [Compound 58], the EC50 in the assay with CD34 + CD45RA- cells was determined as 79 nM. As for `CNC(=O)c1ccc2c(c1)[nH]c1nc(Cc3ccccc3)nc(NCCCN3CCCCC3)c12` [Compound 12], in the assay with CD34 + CD45RA- cells, the 50% effective concentration (EC50) turned out to be 2440 nM.

Turning to `[H]/N=C(/N)NCCNc1nc(Cc2ccccc2)nc2[nH]c3cc(C(=O)OC)ccc3c12` [Compound 36], in the assay with CD34 + CD45RA- cells, the concentration for a half-maximal effect (EC50) worked out at 68 nM.

As for `CN(CCCN)CCCNc1nc(Cc2cccc(Br)c2)nc2[nH]c3cc(-c4nnn(C)n4)ccc3c12` [Compound 25], the EC50 in the assay on CD34 + CD45RA- cells worked out at 115 nM.

`COC(=O)c1ccc2c(c1)[nH]c1nc(Cc3ccccc3)nc(NCCN(C)C(C)=O)c12` [Compound 37]: in the assay on CD34 + CD45RA- cells, the EC50 came out at 83 nM. `COC(=O)c1ccc2c(c1)[nH]c1cc(Cc3cccnc3)cc(NCCCN3CCOCC3)c12` [Compound 38]: in the assay with CD34 + CD45RA- cells, the EC50 turned out to be 704 nM. Still for that read-out and setting: with `C#Cc1cccc(Cc2nc(NCCN(C)CCN)c3c(n2)[nH]c2cc(-c4nnn(C)n4)ccc23)c1` [Compound 32] the figure was 104 nM; with `COC(=O)c1ccc2c(c1)[nH]c1nc(Cc3ccccc3)nc(NCC3CCCNC3)c12` (centres unmarked) [Compound 52], 7 nM; with `COC(=O)c1ccc2c(c1)[nH]c1nc(Cc3ccccc3)nc(CCCCN3CCCCC3)c12` [Compound 17], 15 nM. Regarding `COC(=O)c1ccc2c(c1)[nH]c1nc(Cc3cccc(F)c3)nc(NCCCN3CCCCC3)c12` [Compound 2], the EC50 with CD34 + CD45RA- cells is 20 nM.

Regarding `Cn1nnc(-c2ccc3c(c2)[nH]c2nc(Cc4ccccc4)nc(NCCOCCO)c23)n1` [Compound 46], the EC50 in the assay on CD34 + CD45RA- cells worked out at 141 nM. Still for that read-out and setting: as for `CCOC(=O)c1ccc2c(c1)[nH]c1nc(Cc3ccccc3)nc(NCCCN3CCCCC3)c12` [Compound 5], the figure is 154 nM; as for `COC(=O)c1ccc2c(c1)[nH]c1nc(CCc3ccccc3)nc(NCCCN(C)CC(O)C[N+](C)(C)C)c12` (centres unmarked) [Compound 53], 117 nM; as for `COC(=O)c1ccc2c(c1)[nH]c1nc(Cc3ccccc3)nc(NCCN(C(C)C)C(C)C)c12` [Compound 61], 10.1 nM.

Turning to `COC(=O)c1ccc2c(c1)[nH]c1nc(Cc3cccc(C)c3)nc(NCCCN3CCCCC3)c12` [Compound 1], the EC50 in the assay on CD34 + CD45RA- cells was 38 nM.

On to `COC(=O)c1ccc2c(c1)[nH]c1cc(Cc3cccc(O)c3)nc(NCCCCN3CCCC3)c12` [Compound 35], for which, in the assay on CD34 + CD45RA- cells, the half-maximal effective concentration (EC50) worked out at 44 nM. As for `COC(=O)c1ccc2c(c1)[nH]c1cc(Cc3ccsc3)nc(N[C@H]3CC[C@H](N)CC3)c12` [Compound 39], the EC50 with CD34 + CD45RA- cells worked out at 114 nM. With `COC(=O)c1ccc2c(c1)[nH]c1nc(Cc3cccc(CC(=O)O)c3)nc(NCCCN(C)CCCN)c12` [Compound 20], in the assay on CD34 + CD45RA- cells, the EC50 was found to be 113 nM. On the same count and under the same terms, with `COC(=O)c1ccc2c(c1)[nH]c1nc(Cc3ccccc3)nc(SCCCN3CCCCC3)c12` [Compound 15] the figure was 327 nM.

For the compound `COC(=O)c1ccc2c(c1)[nH]c1nc(Cc3ccccc3)nc(NCCCCO)c12` [Compound 54], the half-maximal effective concentration (EC50) in the assay with CD34 + CD45RA- cells came out at 118 nM. `CCNCCNc1nc(Cc2ccccc2)nc2[nH]c3cc(C(=O)OC)ccc3c12` [Compound 57]: the EC50 in the assay with CD34 + CD45RA- cells was found to be 4.8 nM. With `CCN(CC)CCN(CC)c1nc(Cc2ccccc2)nc2[nH]c3cc(C(=O)OC)cnc3c12` [Compound 31], the EC50 in the assay with CD34 + CD45RA- cells is 394 nM. As for `COC(=O)c1ccc2c(c1)[nH]c1nc(Cc3ccccc3)nc(NCCCN(C)CC(O)COCc3ccccc3)c12` (centres unmarked) [Compound 11], in the assay with CD34 + CD45RA- cells, the concentration for a half-maximal effect (EC50) came to 101 nM. Same read-out and setting: as for `COC(=O)c1ccc2c(c1)[nH]c1nc(Cc3ccccc3)nc(NCCCO)c12` [Compound 47], the figure is 26 nM; as for `COC(=O)c1ccc2c(c1)[nH]c1nc(C(=O)c3ccccc3)nc(SCCCN3CCCCC3)c12` [Compound 16], 5 nM. Turning to `Cn1nnc(-c2cnc3c(c2)[nH]c2nc(Cc4ccccc4)nc(N[C@H]4CC[C@H](N)CC4)c23)n1` [Compound 27], the EC50 in the assay on CD34 + CD45RA- cells was 367 nM.
